According to paper PMC11506774 (Biomolecules, 2024):
Converted amounts (≈) assume the structure as drawn.

Key:
RD cells = experiment: Cytotoxicity assay (CCK-8); format: cell-based; conditions: 24 h, 2-fold dilutions from 1 mg/mL, CCK-8, absorbance 450 nm, mean ± SD, at least two independent experiments
Protocol: RD cells at a density of 4 × 10^4/100 µL/well were seeded in 96-well plates 24 h prior to the cytotoxicity assay. The peptide P25 and its derivatives were reconstituted in DMSO to a concentration of 25 mg/mL and then diluted to 1 mg/mL in DMEM with 100 mM HEPES, from which 2-fold serial dilutions of the peptides were produced, starting with the same medium. DMSO diluted in the same medium served as the control. Fifty microliters of diluted peptides and the control medium were added to the cells and cultured for 24 h. After cultivation, 5 µL of the enhanced CCK-8 reagent (Beyotime, C0043, Shanghai, China) were added directly to each well of the cell culture and cultured for an additional hour. Absorbance at 450 nm was detected using a TECAN Infinite 200 PRO instrument. The cell viability was normalized to the control, and the concentration at which a peptide inhibited 50% of the cell viability (CC50) was calculated using GraphPad Prism 9.5.1 (GraphPad software, San Diego, CA, USA).

EV-A71/SZK2021 = conditions: co-treatment, RD cells, 100 TCID50/50 µL, 24 h, crystal violet; mean ± SD, at least two independent experiments; NO = no inhibition observed
Echo 30/WZ16 = conditions: co-treatment, RD cells, 100 TCID50/50 µL, 24 h, crystal violet; mean ± SD, at least two independent experiments; >125 = protection less than 50% at 125 µg/mL; NO = no inhibition observed
Poliovirus 3/nOPV3 = conditions: 24 h
EV-D68/BCH895A = conditions: co-treatment, RD cells, 100 TCID50/50 µL, 24 h, crystal violet; mean ± SD, at least two independent experiments; >125 = protection less than 50% at 125 µg/mL; NO = no inhibition observed

Compound: CC[C@H](C)[C@H](NC(=O)[C@H](Cc1c[nH]cn1)NC(=O)[C@H](CCCCN)NC(=O)[C@@H]1CCCN1C(=O)[C@H](CCCCN)NC(=O)[C@H](CCSC)NC(=O)[C@H](Cc1ccc(O)cc1)NC(=O)[C@@H](NC(=O)[C@H](CCCNC(=N)N)NC(=O)[C@@H](NC(=O)[C@@H](NC(=O)[C@@H](NC(=O)[C@@H](NC(=O)[C@H](Cc1ccccc1)NC(=O)CN)[C@@H](C)O)C(C)C)[C@@H](C)O)C(C)C)C(C)C)C(=O)N[C@@H](CCCCN)C(=O)N[C@@H](C)C(=O)N[C@@H](Cc1c[nH]c2ccccc12)C(=O)N[C@@H](C)C(=O)O [Peptide P25]
- CC50 (RD cells): 256.43 ± 7.15 µg/mL (≈ 115 µM)
- IC50 of P25 at 6 h of pre-treatment (EV-A71/FY0805; 6 h): 3.9 µg/mL
- IC50 (µg/mL) EV-A71 /FY0805 (EV-A71/FY0805; 24 h): 32.35 ± 7.23 µg/mL (≈ 14.5 µM)
- IC50 (µg/mL) EV-A71 /SZK2021 (EV-A71/SZK2021): 41.32 ± 8.46 µg/mL
- IC50 (µg/mL) Echo 30 /WZ16 (Echo 30/WZ16): >125 µg/mL
- IC50 (µg/mL) Poliovirus 3 /nOPV3 (Poliovirus 3/nOPV3): >125 µg/mL
- IC50 (µg/mL) EV-D68 /BCH895A (EV-D68/BCH895A): 57.56 ± 5.81 µg/mL
